Patent publication US20240409934A1, “FOXO1-TARGETED THERAPY FOR THE TREATMENT OF CANCER” (BOARD OF REGENTS, THE UNIVERSITY OF TEXAS SYSTEM, priority 2021, published 2024)

Columns and labels:
[1] = tested on: HCT116; assay: Colony formation assay (crystal violet); assay type: cell-based; conditions: treated five days
[2] = tested on: HCT116 colon cancer cells; assay: Gene expression by qRT-PCR (TUBB reference); assay type: cell-based; conditions: 48 hours
[3] = tested on: BT549 CSCs; assay: Gene expression by qRT-PCR in cancer stem cells; assay type: cell-based; conditions: 1 μM for 48 hours
Method: (§1) Cell culture and drug treatments. Cell lines were obtained from ATCC (American Type Culture Collection, Manassas, VA) and grown under standard conditions (5% CO2, 10% FBS (fetal bovine serum), with 5% antifungal/antibacterial). Cell lines were tested for Mycoplasma using the MycoAlert Mycoplasma Detection Kit (Lonza, Basel Switzerland, cat: LT07-218); all experiments were done with mycoplasma negative cells. U87MG cells were propagated in MEM (Minimal Essential Medium). BT549 and DBTRG cells were propagated in RPMI (Roswell Park Memorial Institute 1640 Medium). LN18, U118MG, A172 and LN229 cells were propagated in DMEM (Dulbecco's Modified Eagle Medium). Neurosphere/cancer stem cell cultures for U87MG and BT549 cell lines were plated with 40,000 cells per mL in 3D Tumorsphere Medium XF (Sigma cat: C-28070, Burlington, MA). BT549 cancer stem cell cultures were supplemented with 1XB27 XenoFree CTS (Gibco/Thermo Fisher Waltham, MA, USA). AS1842856 was purchased from Calbiochem (Danvers, MA) and utilized at 200 nM, 500 nM and 1 μM final concentrations as indicated. […] Samples (cDNAs) were analyzed using (Power SYBR Green Master Mix, Applied Biosystems, Foster City, CA) and the ABI Step-One Real-time system (Carlsbad, CA). Expression levels were normalized to Beta-Tubulin, TUBB in gene expression experiments and calculated using 2-4ACT method (Livak et al., 2001). […]

[4] = tested on: U87MG CSCs; assay: Gene expression by qRT-PCR in cancer stem cells; assay type: cell-based; conditions: 1 μM for 48 hours
Method: as §1

[5] = tested on: BT549 cells; assay: Propidium iodide / FITC-Annexin V flow cytometry; assay type: cell-based; conditions: 1 μM, 48 hours
Method: (§2) FIGS. 3A-3D: FOXO1 Inhibitor Treatment led to Apoptosis. (FIGS. 3A-3C) LN229 and BT549 cells were treated with 1 μM AS1842856 and were stained with propidium iodide and FITC-Annexin V followed by flow cytometric analyses. […] (FIG. 3D) Western blot analyses were performed with BT549 and LN229 samples that were treated with AS1842856. Both cell lines had increased caspase 3 cleavage.
(§3) FOXO1 inhibition led to apoptosis induction based on Caspase 3 cleavage and flow cytometric analyses. To clarify the impact of FOXO1 on BBC and GBM cell viability, BT549 and LN229 cells were treated with AS1842856 for 48 and 72 hours respectively.

[6] = tested on: LN229 cells; assay: Propidium iodide / FITC-Annexin V flow cytometry; assay type: cell-based; conditions: 1 μM, 72 hours
Method: as §2, §3

[7] = tested on: BT549; assay: Western blot for cleaved caspase 3; assay type: cell-based
Method: (§4) Total protein was obtained from indicated cells by rinsing cells with 1×PBS (phosphate buffered saline) followed by directed lysis in 2× sample buffer (125 mM Tris-HCL at pH 6.8, 2% sodium dodecyl sulfate (SDS), 10% 2-mercaptoethanol, 20% glycerol, 0.05% bromophenol blue, 8 M urea); 2× sample buffer was added to each well and cells scraped with a cell scraper. The lysate was collected from each well, placed into a 1.5 mL microcentrifuge tube and heated for 10 minutes at 95° C. in a dry-bath heat block. Protein lysates were separated by sodium dodecyl sulfate-polyacrylamide gel electrophoresis (SDS-PAGE) at 100V for 1 hour. […] Data was analyzed with NIH Image J. Antibodies were obtained from Cell Signaling Technologies (Danvers, MA): Cleaved Caspase 3 antibody (cat: 94530). […]

[8] = tested on: LN229; assay: Western blot for cleaved caspase 3; assay type: cell-based
Method: as §4

[9] = target: FOXO1 (Homo sapiens, UniProt Q12778); conditions: cited from earlier work
FOXO1, sequence (Q12778 whole entry, species assumed): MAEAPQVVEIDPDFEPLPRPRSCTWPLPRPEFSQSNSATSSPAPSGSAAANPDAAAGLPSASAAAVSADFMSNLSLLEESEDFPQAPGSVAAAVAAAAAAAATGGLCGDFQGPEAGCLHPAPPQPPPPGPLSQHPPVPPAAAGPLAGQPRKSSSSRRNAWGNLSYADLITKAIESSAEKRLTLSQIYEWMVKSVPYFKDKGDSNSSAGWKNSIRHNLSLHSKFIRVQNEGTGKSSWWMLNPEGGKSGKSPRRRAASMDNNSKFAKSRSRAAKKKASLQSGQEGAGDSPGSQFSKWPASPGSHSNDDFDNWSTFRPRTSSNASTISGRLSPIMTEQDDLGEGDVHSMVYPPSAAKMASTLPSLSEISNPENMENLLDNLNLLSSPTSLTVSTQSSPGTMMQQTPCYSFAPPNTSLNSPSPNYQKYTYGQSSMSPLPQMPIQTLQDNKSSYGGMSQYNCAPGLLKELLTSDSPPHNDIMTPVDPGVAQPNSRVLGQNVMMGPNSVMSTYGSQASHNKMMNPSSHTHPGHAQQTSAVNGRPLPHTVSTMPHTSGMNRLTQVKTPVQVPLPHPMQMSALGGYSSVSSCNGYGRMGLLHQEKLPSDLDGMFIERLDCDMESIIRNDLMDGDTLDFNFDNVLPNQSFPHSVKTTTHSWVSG

SMILES: CCn1cc(C(=O)O)c(=O)c2c(N)c(F)c(NC3CCCCC3)cc21 [AS1842856, 5-Amino-7-(cyclohexylamino)-1-ethyl-6-fluoro-4-oxo-1,4-dihydroquinoline-3-carboxylic acid]
- colony formation [1]: Significantly reduced colony formation
- FAS gene expression [2]: induced the FAS gene
- FAS and BIM expression [3]: FAS and BIM were induced
- FAS and BIM expression [4]: FAS and BIM were induced
- Annexin V-FITC and/or PI staining (indicators of apoptosis) [5]: positive for Annexin V-FITC and/or PI
- Annexin V-FITC and/or PI staining (indicators of apoptosis) [6]: positive for Annexin V-FITC and/or PI
- caspase 3 cleavage [7]: positive for caspase 3 cleavage
- caspase 3 cleavage [8]: positive for caspase 3 cleavage
- FOXO1 DNA binding and transactivation [9]: reduces DNA binding and transactivation
